Converted amounts (≈) assume the structure as drawn. Read-outs that look alike come from different tables or passages of the source. Blank lines part the entries; values can stand above or below the compound they belong to. Bridge positions count the residues as written; N and C are the ends. Square brackets hold non-standard residues; d marks the D form. Peptide text beside a SMILES is read from it. R5 = C=CCCC[C@@](C)(N)C(=O)O
What was measured:
Enterobacter aerogenes = assay: microbe, parasite or virus in culture; type: cell-based; conditions: MHB medium
Experimental: (§1) The antimicrobial assay was performed according to a modified National Committee for Clinical Laboratory Standards (NCCLS) protocol ([41], [42]). Briefly, 5 × 10^5 CFU/mL bacterial cells were treated with various peptide concentrations and incubated at 37 ± 2°C for 16 to 20 h. The lowest concentration with clear wells was recorded as the MIC for each test molecule. The clear wells were further plated in Mueller-Hinton agar (MHA) plates, followed by incubation overnight at 37 ± 2°C. After plating, the lowest concentration at which no growth was observed was recorded as the MBC. For the serum sensitivity assay, the antimicrobial activity of the peptides was tested in medium containing 50% human serum ([43], [44]).

Escherichia coli = assay: microbe, parasite or virus in culture; type: cell-based
Experimental: as §1

[1] = system: NDM-1 Klebsiella pneumoniae; assay: microbe, parasite or virus in culture; type: cell-based
Experimental: as §1

Pseudomonas aeruginosa = assay: microbe, parasite or virus in culture; type: cell-based
Experimental: as §1

Salmonella enterica = assay: microbe, parasite or virus in culture; type: cell-based; conditions: MHB medium
Experimental: as §1

MDR A. baumannii 1019 = assay: microbe, parasite or virus in culture; type: cell-based, Acinetobacter baumannii
Experimental: as §1

MDR A. baumannii 1033 = assay: microbe, parasite or virus in culture; type: cell-based, Acinetobacter baumannii; conditions: for MBC: read-out: MBC; for MIC: read-out: MIC
Experimental: as §1

MDR A. baumannii 14B0091 = assay: microbe, parasite or virus in culture; type: cell-based, Acinetobacter baumannii
Experimental: as §1

MDR A. baumannii 1607 = assay: microbe, parasite or virus in culture; type: cell-based, Acinetobacter baumannii
Experimental: as §1

MDR A. baumannii 1702 = assay: microbe, parasite or virus in culture; type: cell-based, Acinetobacter baumannii; conditions: for MBC: read-out: MBC; for MIC: read-out: MIC
Experimental: as §1

MDR A. baumannii 2088 = assay: microbe, parasite or virus in culture; type: cell-based, Acinetobacter baumannii
Experimental: as §1

MDR A. baumannii 2962 = assay: microbe, parasite or virus in culture; type: cell-based, Acinetobacter baumannii
Experimental: as §1

MDR A. baumannii 2982 = assay: microbe, parasite or virus in culture; type: cell-based, Acinetobacter baumannii
Experimental: as §1

MDR A. baumannii 2997 = assay: microbe, parasite or virus in culture; type: cell-based, Acinetobacter baumannii; conditions: for MBC: read-out: MBC; for MIC: read-out: MIC
Experimental: as §1

MDR A. baumannii 2998 = assay: microbe, parasite or virus in culture; type: cell-based, Acinetobacter baumannii
Experimental: as §1

MDR A. baumannii 3618 = assay: microbe, parasite or virus in culture; type: cell-based, Acinetobacter baumannii
Experimental: as §1

MDR A. baumannii 921 = assay: microbe, parasite or virus in culture; type: cell-based, Acinetobacter baumannii
Experimental: as §1

Staphylococcus aureus = type: cell-based
Experimental: as §1

Acinetobacter baumannii = assay: microbe, parasite or virus in culture; type: cell-based; conditions: for MBC: read-out: MBC; for MIC: read-out: MIC
Experimental: as §1, with “[44]). The antimicrobial assay was performed in the presence of physiological ions and glucose. The test media were supplemented with MgCl2 (1 mM), CaCl2 (2 mM), NaCl (150 mM), KCl (4.5 mM), NH4Cl (6 μM) ([45], [46]), or glucose (0.2%) ([47]), followed by routine antimicrobial assay as described previously. For the pH sensitivity assay, the antimicrobial assay was performed in media adjusted to pH values ranging from 4 to 12. To estimate the effects of temperature on antimicrobial activity, the peptide was incubated for 1 h at temperatures ranging from 40 to 100°C ([48]), followed by the antimicrobial assay as described above.” for “[44]).”

human red blood cells = type: cell-based
Experimental: The hemolytic assay was performed after approval from the institutional ethics committee (Academia Sinica Institutional Review Board [IRB]; ID no. AS-IRB02-111075). Blood was collected from healthy humans, and 50 μL of a 2% blood cell suspension in normal saline was treated with an equal volume of peptide at different concentrations. The mixture was then incubated at 37 ± 2°C for 1 h. Next, the cell suspension was centrifuged at 1,000 × g for 10 min. Percent hemolysis was estimated by the absorbance of treated and control supernatant samples at 540 nm ([23], [44]).

[2] = HS, 50% human serum containing MHB medium
[3] = HS, MH medium containing 50% human serum
[4] = HS, MH medium containing 50% human serum, read-out: MBC

Structure (SMILES): CC[C@H](C)[C@H](NC(=O)[C@H](CCCCN)NC(=O)[C@H](CCC(=O)O)NC(=O)[C@H](CCCCN)NC(=O)[C@H](CO)NC(=O)[C@H](CCCCN)NC(=O)[C@H](CCCNC(=N)N)NC(=O)[C@H](Cc1ccccc1)NC(=O)[C@H](Cc1ccccc1)NC(=O)[C@H](CC(=O)O)NC(=O)CNC(=O)[C@H](CC(C)C)NC(=O)[C@@H](N)CC(C)C)C(=O)NCC(=O)N[C@@H](CCCCN)C(=O)N[C@@H](CCC(=O)O)C(=O)N[C@@H](Cc1ccccc1)C(=O)N[C@@H](CCCCN)C(=O)N[C@@H](CCCNC(=N)N)C(=O)N[C@H](C(=O)N[C@H](C(=O)N[C@@H](CCC(N)=O)C(=O)N[C@@H](CCCNC(=N)N)C(=O)N[C@H](C(=O)N[C@@H](CCCCN)C(=O)N[C@@H](CC(=O)O)C(=O)N[C@@H](Cc1ccccc1)C(=O)N[C@@H](CC(C)C)C(=O)N[C@@H](CCCNC(=N)N)C(=O)N[C@@H](CC(N)=O)C(=O)N[C@@H](CC(C)C)C(=O)N[C@H](C(=O)N1CCC[C@H]1C(=O)N[C@@H](CCCNC(=N)N)C(=O)N[C@H](C(=O)N[C@@H](CCC(=O)O)C(=O)N[C@@H](CO)C(=O)O)[C@@H](C)O)C(C)C)[C@@H](C)CC)C(C)C)[C@@H](C)CC [LL-37]
- MBC (Enterobacter aerogenes): 6.25 µM (≈ 28.1 µg/mL)
- MIC (Enterobacter aerogenes): 6.25 µM (≈ 28.1 µg/mL)
- MBC (Escherichia coli; [2]): >25 µM
- MIC (Escherichia coli; [2]): >25 µM
- MBC (Escherichia coli; MHB medium): 6.25 µM (≈ 28.1 µg/mL)
- MIC (Escherichia coli; MHB medium): 6.25 µM (≈ 28.1 µg/mL)
- MBC [1, 2]: >25 µM
- MIC [1, 2]: >25 µM
- MBC ([1]; MHB medium): 25 µM (≈ 112 µg/mL)
- MIC ([1]; MHB medium): 25 µM (≈ 112 µg/mL)
- MBC (Pseudomonas aeruginosa; HS, 50% human serum containing MHB medium, read-out: MBC): >25 µM
- MIC (Pseudomonas aeruginosa; HS, 50% human serum containing MHB medium, read-out: MIC): >25 µM
- MBC (Pseudomonas aeruginosa; MHB medium): 6.25−12.5 μM
- MIC (Pseudomonas aeruginosa; MHB medium): 6.25−12.5 μM
- MBC (Salmonella enterica): >25 µM
- MIC (Salmonella enterica): >25 µM
- MBC (MDR A. baumannii 1019; [3]): >25 µM
- MIC (MDR A. baumannii 1019; [3]): >25 µM
- MBC (MDR A. baumannii 1019; MHB medium): 6.25 µM (≈ 28.1 µg/mL)
- MIC (MDR A. baumannii 1019; MHB medium): 6.25 µM (≈ 28.1 µg/mL)
- MBC (MDR A. baumannii 1033; [3]): >25 µM
- MIC (MDR A. baumannii 1033; [3]): >25 µM
- MBC (MDR A. baumannii 1033; MHB medium): 6.25 µM (≈ 28.1 µg/mL)
- MIC (MDR A. baumannii 1033; MHB medium): 6.25 µM (≈ 28.1 µg/mL)
- MBC (MDR A. baumannii 14B0091; [3]): >25 µM
- MIC (MDR A. baumannii 14B0091; [3]): >25 µM
- MBC (MDR A. baumannii 14B0091; MHB medium): 3.13 µM (≈ 14.1 µg/mL)
- MIC (MDR A. baumannii 14B0091; MHB medium): 3.13 µM (≈ 14.1 µg/mL)
- MIC (MDR A. baumannii 1607; [3]): >25 µM
- MBC (MDR A. baumannii 1607; [4]): >25 µM
- MBC (MDR A. baumannii 1607; MHB medium): 3.13 to 6.25 µM
- MIC (MDR A. baumannii 1607; MHB medium): 3.13 µM (≈ 14.1 µg/mL)
- MBC (MDR A. baumannii 1702; [3]): >25 µM
- MIC (MDR A. baumannii 1702; [3]): >25 µM
- MBC (MDR A. baumannii 1702; MHB medium): 3.13 µM (≈ 14.1 µg/mL)
- MIC (MDR A. baumannii 1702; MHB medium): 3.13 µM (≈ 14.1 µg/mL)
- MBC (MDR A. baumannii 2088; [4]): >25 µM
- MIC (MDR A. baumannii 2088; HS, MH medium containing 50% human serum, read-out: MIC): >25 µM
- MBC (MDR A. baumannii 2088; MHB medium): 3.13 to 6.25 µM
- MIC (MDR A. baumannii 2088; MHB medium): 3.13 to 6.25 µM
- MBC (MDR A. baumannii 2962; [3]): >25 µM
- MIC (MDR A. baumannii 2962; [3]): >25 µM
- MBC (MDR A. baumannii 2962; MHB medium): 6.25 µM (≈ 28.1 µg/mL)
- MIC (MDR A. baumannii 2962; MHB medium): 6.25 µM (≈ 28.1 µg/mL)
- MBC (MDR A. baumannii 2982; [3]): >25 µM
- MIC (MDR A. baumannii 2982; [3]): >25 µM
- MBC (MDR A. baumannii 2982; MHB medium): 12.5 µM (≈ 56.2 µg/mL)
- MIC (MDR A. baumannii 2982; MHB medium): 6.25 µM (≈ 28.1 µg/mL)
- MBC (MDR A. baumannii 2997; [3]): >25 µM
- MIC (MDR A. baumannii 2997; [3]): >25 µM
- MBC (MDR A. baumannii 2997; MHB medium): 1.56 µM (≈ 7.01 µg/mL)
- MIC (MDR A. baumannii 2997; MHB medium): 1.56 µM (≈ 7.01 µg/mL)
- MIC (MDR A. baumannii 2998; [3]): >25 µM
- MBC (MDR A. baumannii 2998; [4]): >25 µM
- MBC (MDR A. baumannii 2998; MHB medium): 6.25 to 12.5 µM
- MIC (MDR A. baumannii 2998; MHB medium): 6.25 µM (≈ 28.1 µg/mL)
- MBC (MDR A. baumannii 3618; [3]): >25 µM
- MIC (MDR A. baumannii 3618; [3]): >25 µM
- MBC (MDR A. baumannii 3618; MHB medium): 3.13 µM (≈ 14.1 µg/mL)
- MIC (MDR A. baumannii 3618; MHB medium): 3.13 µM (≈ 14.1 µg/mL)
- MBC (MDR A. baumannii 921; [3]): >25 µM
- MIC (MDR A. baumannii 921; [3]): >25 µM
- MBC (MDR A. baumannii 921; MHB medium): 6.25 µM (≈ 28.1 µg/mL)
- MIC (MDR A. baumannii 921; MHB medium): 6.25 µM (≈ 28.1 µg/mL)

- MIC (Staphylococcus aureus): >25 µM
- MIC (Acinetobacter baumannii): 12.5 µM (≈ 35.5 µg/mL)
Structure (SMILES): CC[C@H](C)[C@H](NC(=O)[C@@H](NC(=O)[C@@H](NC(=O)[C@@H](N)Cc1ccccc1)[C@@H](C)CC)[C@@H](C)CC)C(=O)N[C@@H](CCCCN)C(=O)N[C@@H](CCCCN)C(=O)N[C@@H](CO)C(=O)NCC(=O)NCC(=O)N[C@@H](CC(C)C)C(=O)N[C@]1(C)CCCC=CCCC[C@](C)(C(=O)NCC(=O)N[C@@H](C)C(=O)N[C@]2(C)CCCC=CCCC[C@](C)(C(=O)N[C@H](C(=O)N[C@@H](CCCCN)C(=O)N[C@@H](CCCCN)C(=O)O)[C@@H](C)CC)NC(=O)[C@H](CCCCN)NC(=O)[C@H](CCCCN)NC(=O)[C@H](CCCCN)NC2=O)NC(=O)[C@H](CCCCN)NC(=O)[C@H](CCCCN)NC(=O)[C@H](CCCCN)NC1=O [TP4-2] (H-FIIIKKSGGL[R5]KKK[R5]GA[R5]KKK[R5]IKK-OH; staple 11-15, 18-22; N-terminus and C-terminus assumed)
- MBC (Staphylococcus aureus): >25 µM
- MBC (Acinetobacter baumannii): 12.5 µM (≈ 35.5 µg/mL)
- 15% hemolysis concn (human red blood cells): >100 µM

- MIC (Staphylococcus aureus): >25 µM
- MIC (Acinetobacter baumannii): 12.5 µM (≈ 36.5 µg/mL)
Structure (SMILES): CC[C@H](C)[C@H](NC(=O)[C@@H](NC(=O)[C@@H](N)Cc1ccccc1)[C@@H](C)CC)C(=O)N[C@]1(C)CCCC=CCCC[C@](C)(C(=O)NCC(=O)N[C@@H](CC(C)C)C(=O)N[C@]2(C)CCCC=CCCC[C@](C)(C(=O)NCC(=O)N[C@@H](C)C(=O)N[C@]3(C)CCCC=CCCC[C@](C)(C(=O)N[C@H](C(=O)N[C@@H](CCCCN)C(=O)N[C@@H](CCCCN)C(=O)O)[C@@H](C)CC)NC(=O)[C@H](CCCCN)NC(=O)[C@H](CCCCN)NC(=O)[C@H](CCCCN)NC3=O)NC(=O)[C@H](CCCCN)NC(=O)[C@H](CCCCN)NC(=O)[C@H](CCCCN)NC2=O)NC(=O)[C@H](CO)NC(=O)[C@H](CCCCN)NC(=O)[C@H](CCCCN)NC1=O [TP4-4] (H-FII[R5]KKS[R5]GL[R5]KKK[R5]GA[R5]KKK[R5]IKK-OH; staple 4-8, 11-15, 18-22; N-terminus and C-terminus assumed)
- MBC (Staphylococcus aureus): >25 µM
- MBC (Acinetobacter baumannii): 12.5 µM (≈ 36.5 µg/mL)
- 15% hemolysis concn (human red blood cells): >100 µM

— PMC10101059, “Rational Design of Stapled Antimicrobial Peptides to Enhance Stability and In Vivo Potency against Polymicrobial Sepsis” (Microbiology Spectrum, 2023)
